The assay deals with T1, protein tyrosine phosphatase 1B (PTP1B) (Homo sapiens, UniProt P18031).
T1 construct: gene PTPN1; Recombinant human GST-PTP1B (hGST-PTP1B)
T1 sequence (P18031 1-435): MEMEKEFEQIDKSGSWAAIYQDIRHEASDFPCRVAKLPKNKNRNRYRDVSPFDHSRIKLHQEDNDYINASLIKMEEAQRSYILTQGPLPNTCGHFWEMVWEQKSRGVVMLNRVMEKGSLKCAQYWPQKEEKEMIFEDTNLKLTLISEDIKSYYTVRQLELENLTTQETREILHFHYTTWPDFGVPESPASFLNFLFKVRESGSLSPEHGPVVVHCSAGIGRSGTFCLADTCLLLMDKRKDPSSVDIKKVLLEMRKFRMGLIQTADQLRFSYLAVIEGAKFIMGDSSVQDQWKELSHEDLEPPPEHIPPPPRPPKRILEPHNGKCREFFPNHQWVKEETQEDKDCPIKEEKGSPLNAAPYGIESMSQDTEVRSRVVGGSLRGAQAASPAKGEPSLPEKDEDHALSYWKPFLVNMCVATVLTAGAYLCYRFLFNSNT
In words: pNPP hydrolysis assay at […] nm with recombinant GST-PTP1B. The class given is biochemical.

The term IC50 denotes the concentration that inhibits the measured activity by half. For the compound `CC(C)OCc1cc(O)c(O)c(Br)c1Cc1cc(O)c(O)c(Br)c1Br` [HPN, 3,4-dibromo-5-(2-bromo-3,4-dihydroxy-6-(isopropoxymethyl)benzyl)benzene-1,2-diol], the concentration for half-maximal inhibition (IC50) amounted to 0.63 µM.

The record behind these values is publication PMC3640384, “HPN, a Synthetic Analogue of Bromophenol from Red Alga Rhodomela confervoides: Synthesis and Anti-Diabetic Effects in C57BL/KsJ-db/db Mice” (Marine Drugs, 2013).
